What was measured:
Assay in all cases: cells
HOP-62 = format: functional, cell-based, Homo sapiens; conditions: Homo sapiens, HOP-62;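 further: cell growth inhibition determined with a viability assay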
Description: SANGER: Inhibition of human HOP-62 cell growth in a cell viability assay.

SK-N-FI = format: functional, cell-based, Homo sapiens; conditions: Homo sapiens, SK-N-FI;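 further: cell viability assay measuring growth inhibition of human SK-N-FI cells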
Description: SANGER: Inhibition of human SK-N-FI cell growth in a cell viability assay.

IST-MES1 = format: functional, cell-based, Homo sapiens; conditions: Homo sapiens, IST-MES1;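 further: growth inhibition of IST-MES1 cells, measured with a cell viability assay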
Description: SANGER: Inhibition of human IST-MES1 cell growth in a cell viability assay.

TE-5 = format: functional, cell-based, Homo sapiens; conditions: Homo sapiens, TE-5;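 further: inhibition of cell growth, read out by a cell viability assay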
Description: SANGER: Inhibition of human TE-5 cell growth in a cell viability assay.

no-10 = format: functional, cell-based, Homo sapiens; conditions: Homo sapiens;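 further: growth inhibition of no-10 cells, read out with a cell viability assay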
Description: SANGER: Inhibition of human no-10 cell growth in a cell viability assay.

NCI-H1395 = format: functional, cell-based, Homo sapiens; conditions: Homo sapiens, NCI-H1395;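 further: cell viability assay read-out quantifying reduced proliferation of human NCI-H1395 cells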
Description: SANGER: Inhibition of human NCI-H1395 cell growth in a cell viability assay.

EW-11 = format: functional, cell-based, Homo sapiens; conditions: Homo sapiens, EW-11;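 further: growth inhibition of human EW-11 cells, measured with a cell viability assay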
Description: SANGER: Inhibition of human EW-11 cell growth in a cell viability assay.

8-MG-BA = format: functional, cell-based, Homo sapiens; conditions: Homo sapiens, 8-MG-BA;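 further: growth inhibition of 8-MG-BA cells, read out with a cell viability assay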
Description: SANGER: Inhibition of human 8-MG-BA cell growth in a cell viability assay.

OS-RC-2 = format: functional, cell-based, Homo sapiens; conditions: Homo sapiens, OS-RC-2;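 further: growth inhibition of human OS-RC-2 cells, measured by a cell viability assay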
Description: SANGER: Inhibition of human OS-RC-2 cell growth in a cell viability assay.

COLO-824 = format: functional, cell-based, Homo sapiens; conditions: Homo sapiens, COLO-824
Description: SANGER: Inhibition of human COLO-824 cell growth in a cell viability assay.

VA-ES-BJ = format: functional, cell-based, Homo sapiens; conditions: Homo sapiens, VA-ES-BJ;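 further: growth inhibition of the VA-ES-BJ cell line, read out by a cell viability assay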
Description: SANGER: Inhibition of human VA-ES-BJ cell growth in a cell viability assay.

MSTO-211H = format: functional, cell-based, Homo sapiens; conditions: Homo sapiens, MSTO-211H
Description: SANGER: Inhibition of human MSTO-211H cell growth in a cell viability assay.

BB49-HNC = format: functional, cell-based, Homo sapiens; conditions: Homo sapiens, BB49-HNC;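 further: cell viability assay read-out, reported as inhibition of BB49-HNC cell growth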
Description: SANGER: Inhibition of human BB49-HNC cell growth in a cell viability assay.

NCI-H2126 = format: functional, cell-based, Homo sapiens; conditions: Homo sapiens, NCI-H2126;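 further: growth inhibition of the cancer cell line, determined with a cell viability readout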
Description: SANGER: Inhibition of human NCI-H2126 cell growth in a cell viability assay.

NH-12 = format: functional, cell-based, Homo sapiens; conditions: Homo sapiens, NH-12;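 further: growth inhibition of NH-12 cells, read out with a cell viability assay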
Description: SANGER: Inhibition of human NH-12 cell growth in a cell viability assay.

C2BBe1 = format: functional, cell-based, Homo sapiens; conditions: Homo sapiens, C2BBe1;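 further: growth inhibition of C2BBe1 cells, read out through a viability assay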
Description: SANGER: Inhibition of human C2BBe1 cell growth in a cell viability assay.

MPP-89 = format: functional, cell-based, Homo sapiens; conditions: Homo sapiens, MPP-89;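 further: growth inhibition of human MPP-89 cells, read out with a cell viability assay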
Description: SANGER: Inhibition of human MPP-89 cell growth in a cell viability assay.

BB65-RCC = format: functional, cell-based, Homo sapiens; conditions: Homo sapiens, BB65-RCC;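 further: growth inhibition of the cell line, measured with a cell viability assay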
Description: SANGER: Inhibition of human BB65-RCC cell growth in a cell viability assay.

NCI-H747 = format: functional, cell-based, Homo sapiens; conditions: Homo sapiens, NCI-H747;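 further: growth inhibition of human NCI-H747 cells, read out by a cell viability assay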
Description: SANGER: Inhibition of human NCI-H747 cell growth in a cell viability assay.

NCI-H1355 = format: functional, cell-based, Homo sapiens; conditions: Homo sapiens, NCI-H1355;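 further: growth inhibition of human NCI-H1355 cells, read out by a cell viability assay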
Description: SANGER: Inhibition of human NCI-H1355 cell growth in a cell viability assay.

BT-474 = format: functional, cell-based, Homo sapiens; conditions: Homo sapiens, BT-474
Description: SANGER: Inhibition of human BT-474 cell growth in a cell viability assay.

U-87 MG = format: functional, cell-based, Homo sapiens, U-87MG ATCC; conditions: Homo sapiens, U-87 MG;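 further: growth inhibition of the cells measured with a viability assay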
Description: SANGER: Inhibition of human U-87-MG cell growth in a cell viability assay.

MZ1-PC = format: functional, cell-based, Homo sapiens; conditions: Homo sapiens, MZ1-PC;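 further: cell viability assay measuring growth inhibition of human MZ1-PC cells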
Description: SANGER: Inhibition of human MZ1-PC cell growth in a cell viability assay.

NCI-N87 = format: functional, cell-based, Homo sapiens; conditions: Homo sapiens, NCI-N87;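 further: growth inhibition of human NCI-N87 cells, read out with a cell viability assay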
Description: SANGER: Inhibition of human NCI-N87 cell growth in a cell viability assay.

D-392MG = format: functional, cell-based, Homo sapiens; conditions: Homo sapiens, D-392MG
DMS-114 = format: functional, cell-based, Homo sapiens; conditions: Homo sapiens, DMS-114
MEG-01 = format: functional, cell-based, Homo sapiens; conditions: Homo sapiens, MEG-01;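 further: growth inhibition of MEG-01 cells, read out by a cell viability assay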
Description: SANGER: Inhibition of human MEG-01 cell growth in a cell viability assay.

MN-60 = format: functional, cell-based, Homo sapiens; conditions: Homo sapiens, MN-60;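 further: growth inhibition of the MN-60 cell line, determined with a cell viability assay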
Description: SANGER: Inhibition of human MN-60 cell growth in a cell viability assay.

KMOE-2 = format: functional, cell-based, Homo sapiens; conditions: Homo sapiens, KMOE-2;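 further: growth inhibition of human KMOE-2 cells, read out with a cell viability assay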
Description: SANGER: Inhibition of human KMOE-2 cell growth in a cell viability assay.

KARPAS-299 = format: functional, cell-based, Homo sapiens; conditions: Homo sapiens, KARPAS-299
Description: SANGER: Inhibition of human KARPAS-299 cell growth in a cell viability assay.

NOMO-1 = format: functional, cell-based, Homo sapiens; conditions: Homo sapiens, NOMO-1;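 further: growth inhibition of human NOMO-1 cells measured by a cell viability assay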
Description: SANGER: Inhibition of human NOMO-1 cell growth in a cell viability assay.

RS4-11 = format: functional, cell-based, Homo sapiens; conditions: Homo sapiens, RS4-11;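 further: growth inhibition of RS4-11 cells, read out by a cell viability assay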
Description: SANGER: Inhibition of human RS4-11 cell growth in a cell viability assay.

EW-24 = format: functional, cell-based, Homo sapiens; conditions: Homo sapiens, EW-24;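 further: human EW-24 cancer cell line, growth inhibition read out via a cell viability assay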
Description: SANGER: Inhibition of human EW-24 cell growth in a cell viability assay.

SBC-1 = format: functional, cell-based, Homo sapiens; conditions: Homo sapiens, SBC-1;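 further: cell viability assay measuring growth inhibition of the SBC-1 cell line, IC50 being the concentration that halves growth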
Description: SANGER: Inhibition of human SBC-1 cell growth in a cell viability assay.

LAMA-84 = format: functional, cell-based, Homo sapiens; conditions: Homo sapiens, LAMA-84;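 further: growth inhibition of LAMA-84 cells, read out with a cell viability assay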
Description: SANGER: Inhibition of human LAMA-84 cell growth in a cell viability assay.

SK-MEL-1 = format: functional, cell-based, Homo sapiens; conditions: Homo sapiens, SK-MEL-1;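 further: growth inhibition of human SK-MEL-1 cells, read out by a cell viability assay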
Description: SANGER: Inhibition of human SK-MEL-1 cell growth in a cell viability assay.

TE-12 = format: functional, cell-based, Homo sapiens; conditions: Homo sapiens, TE-12;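 further: growth inhibition of TE-12 cells, read out by a cell viability assay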
Description: SANGER: Inhibition of human TE-12 cell growth in a cell viability assay.

P30-OHK = format: functional, cell-based, Homo sapiens; conditions: Homo sapiens, P30-OHK;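 further: growth inhibition of the P30-OHK cell line, read out with a cell viability assay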
Description: SANGER: Inhibition of human P30-OHK cell growth in a cell viability assay.

QIMR-WIL = format: functional, cell-based, Homo sapiens; conditions: Homo sapiens, QIMR-WIL;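 further: growth inhibition of QIMR-WIL cells, read out with a cell viability assay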
Description: SANGER: Inhibition of human QIMR-WIL cell growth in a cell viability assay.

COR-L88 = format: functional, cell-based, Homo sapiens; conditions: Homo sapiens, COR-L88;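 further: growth inhibition of COR-L88 cells, read out with a cell viability assay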
Description: SANGER: Inhibition of human COR-L88 cell growth in a cell viability assay.

CTB-1 = format: functional, cell-based, Homo sapiens; conditions: Homo sapiens, CTB-1
Description: SANGER: Inhibition of human CTB-1 cell growth in a cell viability assay.

KARPAS-45 = format: functional, cell-based, Homo sapiens; conditions: Homo sapiens, KARPAS-45;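 further: inhibition of cell line growth, read out through a viability assay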
Description: SANGER: Inhibition of human KARPAS-45 cell growth in a cell viability assay.

BE-13 = format: functional, cell-based, Homo sapiens; conditions: Homo sapiens, BE-13;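 further: growth inhibition of human BE-13 cells, measured with a cell viability assay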
Description: SANGER: Inhibition of human BE-13 cell growth in a cell viability assay.

| Structure (SMILES) | IC50 (SK-N-FI) [µM] | IC50 (IST-MES1) [µM] | IC50 (TE-5) [µM] | IC50 (NCI-H1395) [µM] | IC50 (EW-11) [µM] | IC50 (8-MG-BA) [µM] | IC50 (OS-RC-2) [µM] | IC50 (COLO-824) [µM] | IC50 (VA-ES-BJ) [µM] | IC50 (MSTO-211H) [µM] | IC50 (BB49-HNC) [µM] | IC50 (NCI-H2126) [µM] | IC50 (C2BBe1) [µM] | IC50 (MPP-89) [µM] | IC50 (NCI-H747) [µM] | IC50 (NCI-H1355) [µM] | IC50 (BT-474) [µM] | IC50 (U-87 MG) [µM] | IC50 (NCI-N87) [µM] | IC50 (D-392MG) [µM] | also measured |
| --- | --- | --- | --- | --- | --- | --- | --- | --- | --- | --- | --- | --- | --- | --- | --- | --- | --- | --- | --- | --- | --- |
| CC(C)c1ccccc1Cc1cc(C(=O)Nc2ccc(S(=O)(=O)c3ccccc3C(C)(C)C)cc2)c(O)c(O)c1O | 0.328 | 0.214 | 0.884 | 0.612 | 0.434 | 0.154 | 0.737 | 0.691 | 0.0396 | 0.789 | 2.01 | 0.782 | 0.266 | 1.27 | 0.13 | 1.29 | 3.87 | 0.0822 | 2.2 | 1.42 | IC50 (HOP-62): 0.365 µM; IC50 (no-10): 0.277 µM; IC50 (NH-12): 0.172 µM; IC50 (BB65-RCC): 0.135 µM; IC50 (MZ1-PC): 0.635 µM; IC50 (DMS-114): 0.0907 µM |
| CN(C)C(=N)NC(=N)N [METFORMIN] | > 20000 | > 20000 | > 20000 | > 20000 | > 20000 | > 20000 | 13000 | > 20000 | 13300 | > 20000 | > 20000 | > 20000 | 11800 | > 20000 | > 20000 | > 20000 | > 20000 | > 20000 | > 20000 | > 20000 | IC50 (MEG-01): 8620 µM; IC50 (MN-60): > 20000 µM; IC50 (KMOE-2): > 20000 µM; IC50 (KARPAS-299): > 20000 µM; IC50 (NOMO-1): > 20000 µM; IC50 (RS4-11): > 20000 µM; IC50 (EW-24): 9450 µM; IC50 (SBC-1): 6930 µM; IC50 (LAMA-84): > 20000 µM; IC50 (SK-MEL-1): 11800 µM; IC50 (TE-12): > 20000 µM; IC50 (P30-OHK): 2760 µM; IC50 (QIMR-WIL): > 20000 µM; IC50 (COR-L88): 6380 µM; IC50 (CTB-1): > 20000 µM; IC50 (KARPAS-45): 3050 µM; IC50 (BE-13): 18000 µM; IC50 (DMS-114): > 20000 µM |
